Numbers after ± are expanded uncertainties.
Experiment: activity coefficient (dimensionless); of the first substance listed, at infinite dilution; xn = mol fraction of the nth substance listed
Details: 100 kPa, Liquid, Chromatography, x1 = 0

Row | Structure (SMILES) | activity coefficient (318.15 K) | activity coefficient (328.15 K) | activity coefficient (338.15 K) | activity coefficient (348.15 K) | activity coefficient (358.15 K) | activity coefficient (368.15 K) | activity coefficient (378.15 K) | activity coefficient (308.15 K) | activity coefficient (388.15 K) | activity coefficient (398.15 K) | activity coefficient (408.15 K)
1 | CCOC(C)=O [ethyl acetate] + CC(O)C(=O)[O-].CC[N+]1(C)CCCC1 | 5.04 ± 0.43 | 5.14 ± 0.44 | 5.23 ± 0.45 | 5.32 ± 0.46 | 5.43 ± 0.47 | 5.56 ± 0.48 | 5.66 ± 0.49 | – | – | – | –
2 | CCc1ccccc1 [ethylbenzene] + CC(O)C(=O)[O-].CC[N+]1(C)CCCC1 | 9.27 ± 0.8 | 9.36 ± 0.81 | 9.45 ± 0.82 | 9.58 ± 0.83 | 9.68 ± 0.84 | 9.86 ± 0.85 | – | – | – | – | –
3 | CCCCCCC [heptane] + CC(O)C(=O)[O-].CC[N+]1(C)CCCC1 | 196 ± 17 | 180 ± 16 | 167 ± 14 | 154 ± 13 | 144 ± 12 | 133 ± 12 | – | 213 ± 18 | – | – | –
4 | C=CCCCC [hex-1-ene] + CC(O)C(=O)[O-].CC[N+]1(C)CCCC1 | 53.3 ± 4.6 | 50.9 ± 4.4 | 48.7 ± 4.2 | 46.6 ± 4 | 44.7 ± 3.9 | 42.9 ± 3.7 | – | 56 ± 4.8 | – | – | –
5 | CCCCCC [hexane] + CC(O)C(=O)[O-].CC[N+]1(C)CCCC1 | 125 ± 11 | 114 ± 10 | 107 ± 9 | 99.9 ± 8.7 | 94.6 ± 8.2 | 88.7 ± 7.7 | – | 135 ± 12 | – | – | –
6 | CO [methanol] + CC(O)C(=O)[O-].CC[N+]1(C)CCCC1 | – | – | – | – | 0.086 ± 0.03 | 0.095 ± 0.03 | 0.105 ± 0.03 | – | 0.116 ± 0.03 | 0.125 ± 0.03 | 0.137 ± 0.029
7 | CCCC(=O)OC [methyl butanoate] + CC(O)C(=O)[O-].CC[N+]1(C)CCCC1 | 7.46 ± 0.64 | 7.56 ± 0.65 | 7.6 ± 0.66 | 7.74 ± 0.67 | 7.84 ± 0.68 | 8.01 ± 0.69 | 8.08 ± 0.7 | – | – | – | –
8 | COC(C)=O [methyl ethanoate] + CC(O)C(=O)[O-].CC[N+]1(C)CCCC1 | 2.95 ± 0.25 | 3.03 ± 0.26 | 3.1 ± 0.27 | 3.18 ± 0.27 | 3.25 ± 0.28 | 3.37 ± 0.29 | 3.45 ± 0.3 | – | – | – | –
9 | CCC(=O)OC [methyl propanoate] + CC(O)C(=O)[O-].CC[N+]1(C)CCCC1 | 4.71 ± 0.41 | 4.79 ± 0.41 | 4.88 ± 0.42 | 4.97 ± 0.43 | 5.06 ± 0.44 | 5.22 ± 0.45 | 5.32 ± 0.46 | – | – | – | –
10 | CC1CCCCC1 [methylcyclohexane] + CC(O)C(=O)[O-].CC[N+]1(C)CCCC1 | 80.7 ± 7 | 75 ± 6.5 | 69.7 ± 6 | 65.7 ± 5.7 | 61.8 ± 5.3 | 57.8 ± 5 | – | 87.4 ± 7.6 | – | – | –
11 | CCCCCCCCC [nonane] + CC(O)C(=O)[O-].CC[N+]1(C)CCCC1 | 474 ± 41 | 423 ± 37 | 389 ± 34 | 358 ± 31 | 326 ± 28 | 297 ± 26 | – | 518 ± 45 | – | – | –
12 | C=CCCCCCC [oct-1-ene] + CC(O)C(=O)[O-].CC[N+]1(C)CCCC1 | 136 ± 12 | 127 ± 11 | 120 ± 10 | 114 ± 10 | 108 ± 9 | 103 ± 9 | – | 145 ± 13 | – | – | –
13 | CCCCCCCC [octane] + CC(O)C(=O)[O-].CC[N+]1(C)CCCC1 | 307 ± 27 | 275 ± 24 | 254 ± 22 | 236 ± 20 | 217 ± 19 | 200 ± 17 | – | 334 ± 29 | – | – | –
14 | CCCC(C)=O [pentan-2-one] + CC(O)C(=O)[O-].CC[N+]1(C)CCCC1 | 4.7 ± 0.41 | 4.78 ± 0.41 | 4.85 ± 0.42 | 4.93 ± 0.43 | 5.01 ± 0.43 | 5.14 ± 0.44 | – | – | – | – | –
15 | CCC(=O)CC [pentan-3-one] + CC(O)C(=O)[O-].CC[N+]1(C)CCCC1 | 4.84 ± 0.42 | 4.93 ± 0.43 | 5.05 ± 0.44 | 5.14 ± 0.44 | 5.22 ± 0.45 | 5.35 ± 0.46 | – | – | – | – | –
16 | CCCO [propan-1-ol] + CC(O)C(=O)[O-].CC[N+]1(C)CCCC1 | – | – | – | – | 0.236 ± 0.032 | 0.256 ± 0.033 | 0.277 ± 0.034 | – | 0.302 ± 0.035 | 0.327 ± 0.036 | 0.349 ± 0.037
17 | c1ccncc1 [pyridine] + CC(O)C(=O)[O-].CC[N+]1(C)CCCC1 | 1.26 ± 0.11 | 1.3 ± 0.11 | 1.36 ± 0.11 | 1.41 ± 0.12 | 1.46 ± 0.12 | 1.53 ± 0.13 | – | – | – | – | –
18 | C1CCOC1 [tetrahydrofuran] + CC(O)C(=O)[O-].CC[N+]1(C)CCCC1 | 3.54 ± 0.31 | 3.59 ± 0.31 | 3.62 ± 0.31 | 3.68 ± 0.32 | 3.74 ± 0.32 | 3.82 ± 0.33 | – | 3.51 ± 0.3 | – | – | –
19 | c1ccsc1 [thiophene] + CC(O)C(=O)[O-].CC[N+]1(C)CCCC1 | 1.29 ± 0.11 | 1.38 ± 0.12 | 1.47 ± 0.12 | 1.56 ± 0.13 | 1.64 ± 0.14 | 1.75 ± 0.15 | – | – | – | – | –
20 | Cc1ccccc1 [toluene] + CC(O)C(=O)[O-].CC[N+]1(C)CCCC1 | 5.36 ± 0.46 | 5.5 ± 0.47 | 5.62 ± 0.48 | 5.76 ± 0.5 | 5.89 ± 0.51 | 6.06 ± 0.52 | – | – | – | – | –
21 | O [water] + CC(O)C(=O)[O-].CC[N+]1(C)CCCC1 | – | – | – | – | – | 0.046 | 0.052 | – | 0.059 | 0.066 ± 0.03 | 0.072 ± 0.03
